Measurements published in patent US8293751B2, “1,2,3-trisubstituted aryl and heteroaryl derivatives as modulators of metabolism and the prophylaxis and treatment of disorders related thereto such as diabetes and hyperglycemia” (Arena Pharmaceuticals, Inc., priority 2003, dated 2012).
“Also recorded” adds a separate entry of the source.

Tests used:
isolated rat islets = experiment: Stimulation of insulin secretion in isolated rat islets; assay type: cell-based; conditions: 10 μM concentration, enhancement comparable to 25 nM GLP-1, FIG. 4D
Method: E. Stimulation of Insulin Secretion in Isolated Rat Islets
As with HIT-T15 cells, it is known that stimulation of cAMP in isolated rat islets causes an increase in insulin secretion when the glucose concentration in the culture media is changed from 60 mg/dl to 300 mg/dl. RUP3 is an endogenously expressed GPCR in the insulin-producing cells of rat islets. Thus, RUP3 ligands can also be tested for their ability to stimulate GSIS in rat islet cultures. This assay is performed as follows: • A. Select 75-150 islet equivalents (IEQ) for each assay condition using a dissecting microscope. Incubate overnight in low-glucose culture medium. (Optional.) • B. Divide the islets evenly into triplicate samples of 25-40 islet equivalents per sample. Transfer to 40 μm mesh sterile cell strainers in wells of a 6-well plate with 5 ml of low (60 mg/dl) glucose Krebs-Ringers Buffer (KRB) assay medium. • C. Incubate 30 minutes (1 hour if overnight step skipped) at 37° C. and 5% CO2. Save the supernatants if a positive control for the RIA is desired. • D. Move strainers with islets to new wells with 5 ml/well low glucose KRB. […] Freeze and store at <−20° C. until insulin concentrations can be determined. • I. Insulin determinations are done as above, or by Linco Labs as a custom service, using their rat insulin RIA (Cat. #RI-13K). […]

RUP3 = biological target: T1, RUP3 (Homo sapiens, UniProt Q8TDV5); experiment: 96-Well Cyclic AMP Membrane Assay for RUP3 (Membrane Cyclase Assay); assay type: biochemical; conditions: RUP3 membranes, cAMP Flashplate
T1 construct: seen in the listing only (N); seen in the listing only (C); expressed in transfected cells
T1 sequence (Q8TDV5 with tags, fused parts or gaps): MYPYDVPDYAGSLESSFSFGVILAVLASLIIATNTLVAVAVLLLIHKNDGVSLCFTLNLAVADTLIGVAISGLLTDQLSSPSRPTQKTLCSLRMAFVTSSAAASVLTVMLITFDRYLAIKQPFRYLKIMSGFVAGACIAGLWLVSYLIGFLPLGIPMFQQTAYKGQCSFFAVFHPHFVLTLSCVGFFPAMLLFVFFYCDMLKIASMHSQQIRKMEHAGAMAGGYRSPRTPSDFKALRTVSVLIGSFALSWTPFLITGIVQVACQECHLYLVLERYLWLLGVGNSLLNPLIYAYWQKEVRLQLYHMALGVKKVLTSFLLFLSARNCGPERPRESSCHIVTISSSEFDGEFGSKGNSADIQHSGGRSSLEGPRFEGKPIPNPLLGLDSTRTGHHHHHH
Method: 96-Well Cyclic AMP Membrane Assay for RUP3
Binding Buffer—filter through […] Nalgene filter and keep in refrigerator. All buffers and membranes should be kept cold (in ice bucket) while performing assay. • 20 mM Hepes, pH7.4 • 1 mM MgCl2 • 100 mM NaCl • 2× Regeneration Buffer (make in binding buffer): • 20 mM Phosphocreatine (1.02 gm/200 ml binding buffer) • 20 units Creatine phosphokinase (4 mg/200 ml) • 20 uM GTP (make up 10.46 mg/ml in binding buffer and add 200 ul/200 ml) • 0.2 mM ATP (22.04 mg/200 ml) • […] IBMX (44.4 mg IBMX dissolved in 1 ml 100% DMSO first and then add the entire amount to 200 ml of buffer).
Regeneration buffer can be aliquotted into 40-45 ml portions (in 50 ml sterile tubes) and kept frozen for up to 2 months. Simply put the tube in a beaker with room temperature water to thaw out the regeneration buffer on the day of the assay. […]
IC50s or EC50s are done in triplicate. […] The membranes are kept in ice all the time, and a polytron (Brinkmann polytron, model #PT-3100) is used (setting 6-7, for 15-20 seconds) to obtain a homogeneous membrane suspension.) Protein concentration is determined by Bradford protein assay kit using instructions given in the kit, using the standard supplied with the kit as a reference. […]

HIT-T15 cells [1] = experiment: Stimulation of cAMP in HIT-T15 cells; assay type: cell-based, hamster; conditions: compared with adenyl cyclase activator forskolin, FIG. 4B
Method: C. Stimulation of cAMP in HIT-T15 Cells
HIT-T15 (ATCC CRL#1777) is an immortalized hamster insulin-producing cell line. These cells express RUP3 and therefore can be used to assess the ability of RUP3 ligands to stimulate or inhibit cAMP accumulation via its endogenously expressed receptor. In this assay, cells are grown to 80% confluence and then distributed into a 96-well Flashplate (50,000 cells/well) for detection of cAMP via a “cAMP Flashplate Assay” (NEN, Cat #SMP004). Briefly, cells are placed into anti-cAMP antibody-coated wells that contain either vehicle, the test ligand(s) at a concentration of interest, or 1 uM forskolin. The latter is a direct activator of adenylyl cyclase and serves as a positive control for stimulation of cAMP in HIT-T15 cells. All conditions are tested in triplicate. After ail hour incubation to allow for stimulation of cAMP, a Detection Mix containing ^125I-cAMP is added to each well and the plate is allowed to incubate for another 1 hour. The wells are then aspirated to remove unbound ^125I-cAMP. Bound ^125I-cAMP is detected using a Wallac Microbeta Counter. The amount of cAMP in each sample is determined by comparison to a standard curve, obtained by placing known concentrations of cAMP in some wells on the plate. […]

HIT-T15 cells [2] = experiment: Stimulation of insulin secretion in HIT-T15 cells; assay type: cell-based, hamster; conditions: HIT-T15 cells exposed to 15 mM glucose; compared with forskolin; FIG. 4C
Method: D. Stimulation of Insulin Secretion in HIT-T15 Cells
It is known that stimulation of cAMP in HIT-T15 cells causes an increase in insulin secretion when the glucose concentration in the culture media is changed from 3 mM to 15 mM. Thus, RUP3 ligands can also be tested for their ability to stimulate glucose-dependent insulin secretion (GSIS) in HIT-T15 cells. In this assay, 30,000 cells/well in a 12-well plate are incubated in culture media containing 3 mM glucose and no serum for 2 hours. The media is then changed; wells receive media containing either 3 mM or 15 mM glucose, and in both cases the media contains either vehicle (DMSO) or RUP3 ligand at a concentration of interest. Some wells receive media containing 1 uM forskolin as a positive control. All conditions are tested in triplicate. Cells are incubated for 30 minutes, and the amount of insulin secreted into the media is determined by ELISA, using a kit from either Peninsula Laboratories (Cat #ELIS-7536) or Crystal Chem Inc. (Cat #90060).
In the first of these, RUP3 agonists are used to stimulate HIT-T15 cells, which express RUP3 at significant levels, as indicated in the Northern blot shown in FIG. 4A.

[3] = test system: db mice (C57BL/KsOlahsd-Leprdb, diabetic); experiment: Acute response of db mice to RUP3 agonist (blood glucose); assay type: in vivo; conditions: male db mice; 1 μg/kg, intraperitoneally; FIG. 5B
Method: B. […] Male db mice (C57BL/KsOlahsd-Leprdb, diabetic, Harlan) at age of 10 weeks were randomly grouped (n=6) to receive vehicle (oral gavage), Compound B70 (60 mg/kg, oral gavage), or Ex-4 (1 μg/kg, intraperitoneally). After compound administration, food was removed and blood glucose levels were determined at indicated times as shown in FIG. 5B. Reduction in blood glucose at each time point was expressed as percentage of original glucose levels, averaged from six animals for each group.

## CCOC(=O)C1CCN(c2ncnc(Oc3ccc(C4NC(=O)NC4=O)cc3)c2[N+](=O)[O-])CC1 (stereo not shown) [Compound A48, 1-{6-[4-(2,5-Dioxo-imidazolidin-4-yl)-phenoxy]-5-nitro-pyrimidin-4-yl}-piperidine-4-carboxylic acid ethyl ester]
Isolated rat islets
  glucose-dependent insulin release: enhanced glucose-dependent insulin release compared to control

## CCOC(=O)C1CCN(c2ncnc(Oc3ccc(CCC(C)=O)cc3)c2[N+](=O)[O-])CC1 [Compound A51, 1-{5-Nitro-6-[4-(3-oxo-butyl)-phenoxy]-pyrimidin-4-yl}-piperidine-4-carboxylic acid ethyl ester]
Isolated rat islets
  glucose-dependent insulin release: enhanced glucose-dependent insulin release compared to control

## CCCC1CCN(c2ncnc(Oc3ccc(C(=O)c4ccc(F)cc4)cc3)c2[N+](=O)[O-])CC1 [Compound A124, (4-Fluoro-phenyl)-{4-[5-nitro-6-(4-propyl-piperidin-1-yl)-pyrimidin-4-yloxy]-phenyl}-methanone]
RUP3
  IC50: 241 nM

## CS(=O)(=O)c1ccc(Nc2ncnc(N3CCC(Sc4ccccc4)CC3)c2[N+](=O)[O-])cc1 [Compound B84, (4-Methanesulfonyl-phenyl)-[5-nitro-6-(4-phenylsulfanyl-piperidin-1-yl)-pyrimidin-4-yl]-amine]
RUP3
  IC50: 50 nM
HIT-T15 cells [1]
  cAMP production in HIT cells: stimulates cAMP production in HIT cells, at a level comparable to that seen with the adenyl cyclase activator forskolin
HIT-T15 cells [2]
  insulin secretion in HIT cells: stimulates insulin secretion in HIT cells exposed to 15 mM glucose, once again at a level comparable to that seen with the adenyl cyclas activator forskolin; also recorded: stimulates insulin secretion in HIT cells exposed to 15 mM glucose, at a level comparable to that seen with the adenylcyclase activator forskolin

## extendin-4 [Ex-4, reference compound]
[3]
  blood glucose levels compared to vehicle control: significantly reduces glucose levels compared to vehicle control
